pKi: −log10 of the molar value.
Experiments:
h-GABA-A α5β3γ2 [1] = biological target: T1, h-GABA-A α5β3γ2 (Homo sapiens, UniProt P18507+P31644); assay: [3H]flumazenil competition binding assay, membranes of HEK293 cells expressing GABAA receptors; settings: displacement of [3H]-Flumazenil 0.5 nM, HEK293 cells expressing human receptors, mean of two determinations; Table 1
Procedure, shortened: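 Membranes from HEK293 cells transiently expressing human α5β3γ2 GABAA receptors, in Krebs-tris buffer pH 7.5, competed against [3H]flumazenil for 1 hour at 4° C to equilibrium. Bound radioactivity collected on GF/C filters and counted by liquid scintillation; Ki values are means of two determinations.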

h-GABA-A α5β3γ2 [2] = biological target: T1, h-GABA-A α5β3γ2; assay: Two-electrode voltage clamp electrophysiology in Xenopus laevis oocytes expressing GABAA receptors, modulation of GABA EC20 current; type: cell-based; set-up: host or cells: Xenopus laevis oocytes micro-injected with RNA transcripts of the subunits; settings: Table 1; for Efficacy (GABA) %: % modulation of GABA EC20 = 100*(Fold increase-1); for Fold increase h-GABA-A α5β3γ2 oocyte: test compound at approx. 30 fold its Ki, GABA at EC20
Procedure, shortened: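 Human α5β3γ2 GABAA receptors were expressed in Xenopus oocytes by RNA injection, with γ2 RNA 5–10-fold higher, and recorded 3–5 days later by two-electrode voltage clamp at −80 mV at room temperature. The test compound, at about 30× its Ki, was co-applied during a second GABA EC20 pulse. Efficacy is the extremum of the point-by-point ratio to the first response, expressed as 100*(Fold increase−1).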

Row | Structure (SMILES) | pKi (h-GABA-A α5β3γ2 [1]) | Efficacy (GABA) % (h-GABA-A α5β3γ2 [2]) [%] | Fold increase h-GABA-A α5β3γ2 oocyte (h-GABA-A α5β3γ2 [2])
1 | CCOc1ccc(-c2cnn(Cc3c(-c4ccc(C)nc4)noc3C)c(=O)c2)cn1 [Example 151, 5-(6-ethoxypyridin-3-yl)-2-((5-methyl-3-(6-methylpyridin-3-yl)isoxazol-4-yl)methyl)pyridazin-3(2H)-one] | 7.57 | 119 | 2.19
2 | Cc1ccc(-c2noc(C)c2Cn2ncc(-c3cnn(C4CC4)c3)cc2=O)cn1 [Example 152, 5-(1-cyclopropyl-1H-pyrazol-4-yl)-2-((5-methyl-3-(6-methylpyridin-3-yl)isoxazol-4-yl)methyl)pyridazin-3(2H)-one] | 7.54 | 116 | 2.16
3 | Cc1ccc(-c2noc(C)c2Cn2ncc(-c3cnn(CC(F)F)c3)cc2=O)cn1 [Example 153, 5-(1-(2,2-difluoroethyl)-1H-pyrazol-4-yl)-2-((5-methyl-3-(6-methylpyridin-3-yl)isoxazol-4-yl)methyl)pyridazin-3(2H)-one] | 7.62 | 166 | 2.66
4 | Cc1ccc(-c2noc(C)c2Cn2ncc(-c3cnn(C(F)F)c3)cc2=O)cn1 [Example 154, 5-(1-(difluoromethyl)-1H-pyrazol-4-yl)-2-((5-methyl-3-(6-methylpyridin-3-yl)isoxazol-4-yl)methyl)pyridazin-3(2H)-one] | 7.63 | 244 | 3.44
5 | CCn1cc(-c2cnn(Cc3c(-c4ccc(C)nc4)noc3C)c(=O)c2)cn1 [Example 155, 5-(1-ethyl-1H-pyrazol-4-yl)-2-((5-methyl-3-(6-methylpyridin-3-yl)isoxazol-4-yl)methyl)pyridazin-3(2H)-one] | 7.67 | 133 | 2.33
6 | Cc1ccc(-c2noc(C)c2Cn2ncc(-c3ccnc(N(C)C)c3)cc2=O)cn1 [Example 156, 5-(2-(dimethylamino)pyridin-4-yl)-2-((5-methyl-3-(6-methylpyridin-3-yl)isoxazol-4-yl)methyl)pyridazin-3(2H)-one] | 8.59 | 66 | 1.66
7 | Cc1ccc(-c2noc(C)c2Cn2ncc(-c3cnn(CC4CC4)c3)cc2=O)cn1 [Example 157, 5-(1-(cyclopropylmethyl)-1H-pyrazol-4-yl)-2-((5-methyl-3-(6-methylpyridin-3-yl)isoxazol-4-yl)methyl)pyridazin-3(2H)-one] | 7.64 | 86 | 1.86
8 | Cc1ccc(-c2noc(C)c2Cn2ncc(N3CC(OCC(F)(F)F)C3)cc2=O)cn1 [Example 158, 2-[[5-methyl-3-(6-methyl-3-pyridyl)isoxazol-4-yl]methyl]-5-[3-(2,2,2-trifluoroethoxy)azetidin-1-yl]pyridazin-3-one] | 8.02 | 96 | 1.96
9 | COC1CN(c2cnn(Cc3c(-c4ccc(Cl)cc4)noc3C)c(=O)c2)C1 [Example 160, 2-[[3-(4-chlorophenyl)-5-methyl-isoxazol-4-yl]methyl]-5-(3-methoxyazetidin-1-yl)pyridazin-3-one] | 8.13 | 43 | 1.43
10 | CCOC1CN(c2cnn(Cc3c(-c4ccc(Cl)cc4)noc3C)c(=O)c2)C1 [Example 161, 2-[[3-(4-chlorophenyl)-5-methyl-isoxazol-4-yl]methyl]-5-(3-ethoxyazetidin-1-yl)pyridazin-3-one] | 8.11 | 56 | 1.56
11 | Cc1onc(-c2ccc(Cl)cc2)c1Cn1ncc(N2CC3(CCCO3)C2)cc1=O [Example 162, 2-[[3-(4-chlorophenyl)-5-methyl-isoxazol-4-yl]methyl]-5-(5-oxa-2-azaspiro[3.4]octan-2-yl)pyridazin-3-one] | 7.73 | 40 | 1.4
12 | Cc1ccc(-c2noc(C)c2Cn2ncc(-c3ccnc(N4CCNCC4)c3)cc2=O)cn1 [Example 163, 2-((5-methyl-3-(6-methylpyridin-3-yl)isoxazol-4-yl)methyl)-5-(2-(piperazin-1-yl)pyridin-4-yl)pyridazin-3(2H)-one] | 7.94 | 165 | 2.65
13 | Cc1ccc(-c2noc(C)c2Cn2ncc(N3CCC(c4ccnn4C)CC3)cc2=O)cn1 [Example 166, 2-[[5-methyl-3-(6-methyl-3-pyridyl)isoxazol-4-yl]methyl]-5-[4-(2-methylpyrazol-3-yl)-1-piperidyl]pyridazin-3-one] | 8.77 | 149 | 2.49
14 | CCn1nccc1C1CCN(c2cnn(Cc3c(-c4ccc(C)nc4)noc3C)c(=O)c2)CC1 [Example 167, 5-[4-(2-ethylpyrazol-3-yl)-1-piperidyl]-2-[[5-methyl-3-(6-methyl-3-pyridyl)isoxazol-4-yl]methyl]pyridazin-3-one] | 8.66 | 195 | 2.95
15 | Cc1ccc(-c2noc(C)c2Cn2ncc(N3CC(OC(F)F)C3)cc2=O)cn1 [Example 168, 5-[3-(difluoromethoxy)azetidin-1-yl]-2-[[5-methyl-3-(6-methyl-3-pyridyl)isoxazol-4-yl]methyl]pyridazin-3-one] | 8.03 | 140 | 2.4
16 | COC1CN(c2cnn(Cc3c(-c4ccc(C)nn4)noc3C)c(=O)c2)C1 [Example 169, 5-(3-methoxyazetidin-1-yl)-2-[[5-methyl-3-(6-methylpyridazin-3-yl)isoxazol-4-yl]methyl]pyridazin-3-one] | 8.62 | 97 | 1.97
17 | CCOC1CN(c2cnn(Cc3c(-c4ccc(C)nn4)noc3C)c(=O)c2)C1 [Example 170, 5-(3-ethoxyazetidin-1-yl)-2-[[5-methyl-3-(6-methylpyridazin-3-yl)isoxazol-4-yl]methyl]pyridazin-3-one] | 8.66 | 111 | 2.11
18 | Cc1ccc(-c2noc(C)c2Cn2ncc(N3CC4(CCCO4)C3)cc2=O)nn1 [Example 171, 2-[[5-methyl-3-(6-methylpyridazin-3-yl)isoxazol-4-yl]methyl]-5-(5-oxa-2-azaspiro[3.4]octan-2-yl)pyridazin-3-one] | 8.38 | 80 | 1.8
19 | Cc1ccc(-c2noc(C)c2Cn2ncc(-c3cnn(CC(C)C)c3)cc2=O)cn1 [Example 172, 5-(1-isobutylpyrazol-4-yl)-2-[[5-methyl-3-(6-methyl-3-pyridyl)isoxazol-4-yl]methyl]pyridazin-3-one] | 7.47 | 113 | 2.13
20 | Cc1ccc(-c2noc(C)c2Cn2ncc(-c3ccc(C4CC4)nc3)cc2=O)cn1 [Example 173, 5-(6-cyclopropyl-3-pyridyl)-2-[[5-methyl-3-(6-methyl-3-pyridyl)isoxazol-4-yl]methyl]pyridazin-3-one] | 7.53 | 80 | 1.8
21 | CNc1ccc(-c2cnn(Cc3c(-c4ccc(C)nc4)noc3C)c(=O)c2)cn1 [Example 174, 5-(6-(methylamino)-3-pyridyl)-2-((5-methyl-3-(6-methyl-3-pyridyl)isoxazol-4-yl)methyl)pyridazin-3-one] | 7.66 | 101 | 2.01
22 | Cc1ccc(-c2noc(C)c2Cn2ncc(-c3ccnc(OC(F)F)c3)cc2=O)cn1 [Example 175, 5-(2-(difluoromethoxy)pyridin-4-yl)-2-((5-methyl-3-(6-methylpyridin-3-yl)isoxazol-4-yl)methyl)pyridazin-3(2H)-one] | 8.18 | 86 | 1.86
23 | Cc1ccc(-c2noc(C)c2Cn2ncc(-c3cnn(CC4(C)COC4)c3)cc2=O)cn1 [Example 176, 2-((5-methyl-3-(6-methylpyridin-3-yl)isoxazol-4-yl)methyl)-5-(1-((3-methyloxetan-3-yl)methyl)-1H-pyrazol-4-yl)pyridazin-3(2H)-one] | 7.53 | 103 | 2.03
24 | Cc1ccc(-c2noc(C)c2Cn2ncc(-c3ccnc(OC4CCOC4)c3)cc2=O)cn1 (stereo not drawn) [Example 177, 2-((5-methyl-3-(6-methylpyridin-3-yl)isoxazol-4-yl)methyl)-5-(2-((tetrahydrofuran-3-yl)oxy)pyridin-4-yl)pyridazin-3(2H)-one] | 7.74 | 121 | 2.21
25 | Cc1ccc(-c2noc(C)c2Cn2ncc(N3CC[C@@H](C)C3)cc2=O)cn1 [Example 178, 2-[[5-methyl-3-(6-methyl-3-pyridyl)isoxazol-4-yl]methyl]-5-[(3R)-3-methylpyrrolidin-1-yl]pyridazin-3-one] | 8.57 | 158 | 2.58
26 | COc1cc(-c2cnn(Cc3c(-c4ccc(C)nc4)noc3C)c(=O)c2)cnc1OC [Example 179, 5-(5,6-dimethoxypyridin-3-yl)-2-((5-methyl-3-(6-methylpyridin-3-yl)isoxazol-4-yl)methyl)pyridazin-3(2H)-one] | 7.53 | 133 | 2.33

Source: patent publication US11840528B2 (Hoffmann-La Roche Inc., priority 2018, dated 2023)
